Assay results published in patent US20240148821A1, “PHARMACEUTICAL USE OF CYCLIC PEPTIDE COMPOUND” (CHUGAI SEIYAKU KABUSHIKI KAISHA, priority 2021, published 2024).
Numbered stars: 1 amine (or outer) side, 2 acyl side, 3 side chain; on linkers, the order of the positions; unused ones are H or OH. Bridge positions count the residues as written; N and C are the ends. Square brackets hold non-standard residues; d marks the D form. Peptide text beside a SMILES is read from it. * marks the point of attachment. hPhe(3-Cl-4-CF3) = N[C@@H](CCc1ccc(C(F)(F)F)c(Cl)c1)C(=O)O; hPhe(3-F,4-CF3) = N[C@@H](CCc1ccc(C(F)(F)F)c(F)c1)C(=O)O; NMePhe(2-CF3) = CN[C@@H](Cc1ccccc1C(F)(F)F)C(=O)O; NMeAla(4-thiazolyl) = CN[C@@H](Cc1cscn1)C(=O)O; NMe3Pal(6-Me) = CN[C@@H](Cc1ccc(C)nc1)C(=O)O; NMePhe(4-Cl) = CN[C@@H](Cc1ccc(Cl)cc1)C(=O)O; NMePhe(4-Me) = CN[C@@H](Cc1ccc(C)cc1)C(=O)O; NMedβ3hAla = C[C@H](CC(=O)[*:2])N(C)[*:1]; X72 = O=C([C@@H]1Cc2ccccc2N1[*:1])[*:2]; NMeGly(cPent) = CN[C@H](C(=O)O)C1CCCC1; Phe(2-Cl) = N[C@@H](Cc1ccccc1Cl)C(=O)O; Phe(3-I) = N[C@@H](Cc1cccc(I)c1)C(=O)O; NMeCha = CN[C@@H](CC1CCCCC1)C(=O)O; N(isopentyl)Gly = CC(C)CCNCC(=O)O; NMehLeu = CN[C@@H](CCC(C)C)C(=O)O; NMeChg = CN[C@H](C(=O)O)C1CCCCC1; NMeF = CN[C@@H](Cc1ccccc1)C(=O)O; NMeD = CN[C@@H](CC(=O)O)C(=O)O; NMeL = CN[C@@H](CC(C)C)C(=O)O; Chg = N[C@H](C(=O)O)C1CCCCC1; NMeV = CN[C@H](C(=O)O)C(C)C; d(β3hA) = C[C@@H](N)CC(=O)O; Azetidin(1-yl) = C1CN(*)C1; NMeA = CN[C@@H](C)C(=O)O; NMeAib = CNC(C)(C)C(=O)O; Nle = CCCC[C@H](N)C(=O)O; Piperidide = C1CCN(*)CC1; Ac5c = NC1(C(=O)O)CCCC1; Aze = O=C(O)[C@@H]1CCN1; Isopentyl = CC(C)CC*; Sar = CNCC(=O)O

Test system: Human pancreatic cancer cell line AsPC-1 (G12D mutation Kras)
Test: AsPC-1 cell growth inhibition (AsPC-1 CGI)
Assay type: cell-based
Settings: read-out: AsPC-1 cell growth inhibition, 50% growth inhibitory concentration (IC50 value); 96 hours, CellTiter-Glo, values classified in ranges
Protocol: Test compounds were serially dilated with dimethyl sulfoxide, and 200 nL was then dispensed to a U-bottom 96-well plate using Labcyte Echo. […] The cell suspension was dispensed to a. plate containing a test compound at 100 μL per well and incubated at 37° C. in a 5% carbon dioxide gas incubator. 96 hours later, 80 μL of CellTiter-Glo (Promega) was added to each well and fluorescence was measured.

| Structure (SMILES) | IC50 [nM] |
| --- | --- |
| CC[C@H](C)[C@@H]1NC(=O)[C@H](CC(C)C)N(C)C(=O)C[C@@H](C)N(C)C(=O)[C@H](CC(C)C)NC(=O)C(C)(C)N(C)C(=O)[C@H](C2CCCCC2)NC(=O)[C@H](CCc2ccc(C(F)(F)F)c(F)c2)NC(=O)CN(C)C(=O)[C@H](Cc2ccc(Cl)cc2)N(C)C(=O)CN(C)C(=O)CN(C)C1=O [Compound 772] (cyclo([Chg][NMeAib]L[NMedβ3hAla][NMeL]I[Sar][Sar][NMePhe(4-Cl)][Sar][hPhe(3-F,4-CF3)])) | > 500 |
| CC[C@H](C)[C@@H]1NC(=O)[C@H](CC(C)C)N(C)C(=O)C[C@@H](C(=O)N2CCCCC2)N(C)C(=O)[C@H](CC(C)C)NC(=O)C(C)(C)N(C)C(=O)[C@H](Cc2ccccc2Cl)NC(=O)[C@H](Cc2cccc(I)c2)NC(=O)CN(C)C(=O)[C@H](Cc2ccc(C)cc2)N(C)C(=O)[C@@H]2CCN2C(=O)CN(C)C1=O [Compound 781] ([NMeL]I[Sar][Aze][NMePhe(4-Me)][Sar][Phe(3-I)][Phe(2-Cl)][NMeAib]L[NMeD]-Piperidide; lactam N-11) | > 500 |
| CC[C@H](C)[C@@H]1NC(=O)[C@H](C)N(C)C(=O)C[C@@H](C)NC(=O)[C@H](C(C)C)N(C)C(=O)[C@H](Cc2ccccc2)N(C)C(=O)[C@H](CC(C)C)N(C)C(=O)[C@H](CCc2ccc(C(F)(F)F)c(F)c2)NC(=O)CN(C)C(=O)[C@H](Cc2ccc(Cl)cc2)N(C)C(=O)[C@@H]2CCN2C(=O)CN(C)C1=O [Compound 782] (cyclo([Aze][NMePhe(4-Cl)][Sar][hPhe(3-F,4-CF3)][NMeL][NMeF][NMeV][d(β3hA)][NMeA]I[Sar])) | > 500 |
| CC[C@H](C)[C@@H]1NC(=O)[C@H](CC(C)C)N(C)C(=O)C[C@@H](C(=O)N2CCCCC2)N(C)C(=O)[C@H](C2CCCCC2)N(C)C(=O)C2(CCCC2)NC(=O)[C@H](Cc2ccc(C)nc2)N(C)C(=O)[C@H](CCc2ccc(C(F)(F)F)c(Cl)c2)NC(=O)CN(C)C(=O)[C@H](CC2CCCCC2)N(C)C(=O)[C@@H]2CCN2C(=O)CN(C)C1=O [Compound 786] ([NMeL]I[Sar][Aze][NMeCha][Sar][hPhe(3-Cl-4-CF3)][NMe3Pal(6-Me)][Ac5c][NMeChg][NMeD]-Piperidide; lactam N-11) | > 500 |
| CC(C)CCOC[C@@H]1NC(=O)[C@H](CC(C)C)N(C)C(=O)C[C@@H](C(=O)N2CCCCC2)N(C)C(=O)[C@H](C2CCCCC2)N(C)C(=O)C2(CCCC2)NC(=O)[C@@H]2CCCN2C(=O)[C@H](CCc2ccc(C(F)(F)F)c(Cl)c2)NC(=O)CN(C)C(=O)[C@H](CC2CCCCC2)N(C)C(=O)CN(C)C(=O)CN(C)C1=O [Compound 794] ([NMeL]S(Isopentyl)[Sar][Sar][NMeCha][Sar][hPhe(3-Cl-4-CF3)]P[Ac5c][NMeChg][NMeD]-Piperidide; lactam N-11) | > 500 |
| CC[C@H](C)[C@@H]1NC(=O)[C@H](CC(C)C)N(C)C(=O)C[C@@H](C)NC(=O)[C@H](C(C)C)N(C)C(=O)C2(CCCC2)NC(=O)[C@@H]2CCCN2C(=O)[C@H](CCc2ccc(C(F)(F)F)c(Cl)c2)NC(=O)CN(C)C(=O)[C@H](CC2CCCCC2)N(C)C(=O)CN(CCC(C)C)C(=O)CN(C)C1=O [Compound 801] (cyclo([Ac5c][NMeV][d(β3hA)][NMeL]I[Sar][N(isopentyl)Gly][NMeCha][Sar][hPhe(3-Cl-4-CF3)]P)) | > 500 |
| CC[C@H](C)[C@@H]1NC(=O)[C@H](CC(C)C)N(C)C(=O)C[C@@H](C(=O)N(C)C)N(C)C(=O)[C@H](C2CCCC2)N(C)C(=O)[C@H](C)NC(=O)[C@H](Cc2cscn2)N(C)C(=O)[C@H](CCc2ccc(C(F)(F)F)c(Cl)c2)NC(=O)CN(C)C(=O)[C@H](CC2CCCCC2)N(C)C(=O)[C@@H]2CCN2C(=O)[C@H](C)N(C)C1=O [Compound 805] ([NMeL]I[NMeA][Aze][NMeCha][Sar][hPhe(3-Cl-4-CF3)][NMeAla(4-thiazolyl)]A[NMeGly(cPent)][NMeD]-NMe2; lactam N-11) | > 500 |
| CC[C@H](C)[C@@H]1NC(=O)[C@H](CCC(C)C)N(C)C(=O)C[C@@H](C(=O)N2CCC2)N(C)C(=O)[C@H](C2CCCC2)N(C)C(=O)C2(CCCC2)NC(=O)[C@@H]2CCCN2C(=O)[C@H](CCc2ccc(C(F)(F)F)c(Cl)c2)NC(=O)CN(C)C(=O)[C@H](CC2CCCCC2)N(C)C(=O)[C@@H]2CCN2C(=O)[C@H](C)N(C)C1=O [Compound 806] ([NMehLeu]I[NMeA][Aze][NMeCha][Sar][hPhe(3-Cl-4-CF3)]P[Ac5c][NMeGly(cPent)][NMeD]-{Azetidin(1-yl)}; lactam N-11) | ≤ 20 |
| CC[C@H](C)[C@@H]1NC(=O)[C@H](CC(C)C)N(C)C(=O)C[C@@H](C(=O)N2CCCCC2)N(C)C(=O)[C@H](C2CCCCC2)N(C)C(=O)C2(CCCC2)NC(=O)[C@@H]2Cc3ccccc3N2C(=O)[C@H](CCc2ccc(C(F)(F)F)c(Cl)c2)NC(=O)CN(C)C(=O)[C@H](CC2CCCCC2)N(C)C(=O)[C@@H]2CCN2C(=O)[C@H](C)N(C)C1=O [Compound 812] ([NMeL]I[NMeA][Aze][NMeCha][Sar][hPhe(3-Cl-4-CF3)][X72][Ac5c][NMeChg][NMeD]-Piperidide; lactam N-11) | > 500 |
| CCCC[C@@H]1NC(=O)[C@H](Cc2cccc(I)c2)NC(=O)CN(C)C(=O)[C@H](Cc2ccc(Cl)cc2)N(C)C(=O)CN(C)C(=O)CN(C)C(=O)[C@H]([C@@H](C)CC)NC(=O)[C@H](CC(C)C)N(C)C(=O)C[C@@H](C(=O)N2CCCCC2)N(C)C(=O)[C@H](CC(C)C)NC(=O)[C@H](Cc2ccccc2C(F)(F)F)N(C)C1=O [Compound 813] ([NMeL]I[Sar][Sar][NMePhe(4-Cl)][Sar][Phe(3-I)][Nle][NMePhe(2-CF3)]L[NMeD]-Piperidide; lactam N-11) | > 500 |
